# Measurements reported in PMC3135573 (Analytical biochemistry, 2011).
# Read-outs that look alike come from different tables or passages of the source. Marks after values point to notes of the source that are not given here.
# Experiments:
# BioA [1] = target: T1, BioA (Mycobacterium tuberculosis, UniProt P9WQ81); format: biochemical
# BioA [2] = target: T1, BioA; conditions: cited from earlier work
# BioA [3] = target: T1, BioA; conditions: biodisc assay ref 37; cited from earlier work
# T1 sequence (P9WQ81 whole entry, looked up): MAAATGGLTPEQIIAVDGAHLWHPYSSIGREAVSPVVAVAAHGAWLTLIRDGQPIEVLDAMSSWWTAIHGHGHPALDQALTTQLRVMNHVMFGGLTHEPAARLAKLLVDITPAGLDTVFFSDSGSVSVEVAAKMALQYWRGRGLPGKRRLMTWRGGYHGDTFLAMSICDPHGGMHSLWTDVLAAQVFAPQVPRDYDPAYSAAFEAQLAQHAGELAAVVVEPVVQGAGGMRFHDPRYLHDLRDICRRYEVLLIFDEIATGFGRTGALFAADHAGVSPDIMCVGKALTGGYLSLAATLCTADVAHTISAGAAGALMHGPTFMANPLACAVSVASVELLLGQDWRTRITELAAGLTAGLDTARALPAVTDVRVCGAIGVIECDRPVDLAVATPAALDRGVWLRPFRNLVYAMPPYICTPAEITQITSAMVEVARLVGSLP
compound,measurement,setting,value
"O[C@@H](CS)[C@@H](O)CS (racemic) [DTT, dithiothreitol]",decrease of the initial velocity,BioA [1]; addition of 2 mM DTT,18%
C[C@@H](N)C(=O)CCCCCC(=O)O [(R)-KAPA],inhibition of BioA (in words),BioA [2],potent inhibitor of BioA
"C[C@H](N)C(=O)CCCCCC(=O)O.Cl [KAPA, (S)-8-Amino-7-oxononanoic acid hydrochloride salt]",KmKAPA,BioA [3],1.3 ± 0.3 ^a μM
same,KmKAPA,"BioA [1]; this study, 50 nM BioA, 5 mM SAM, KAPA 0–12.5 μM",1.9 ± 0.1 µM
"C[S+](CC[C@H](N)C(=O)[O-])C[C@H]1O[C@@H](n2cnc3c(N)ncnc32)[C@H](O)[C@@H]1O (stereo partly drawn) [SAM, S-adenosyl methionine]",KmSAM,BioA [3],1.4 ± 0.3 ^a mM
same,KmSAM,"BioA [1]; this study, 50 nM BioA, 12.5 μM KAPA, SAM 0.12–15 mM",1.17 ± 0.06 mM
